# In patent US12350341B2, “Methods for the treatment of cancer and benign lesions by ablation” (Duke University, priority 2017, dated 2025):
# Where “and” joins values, the source holds several entries; their conditions need not be identical. Equal values may be shown once. Read-outs that look alike come from different tables or passages of the source.
# How the values were obtained:
# [1] = tested on: HeLa human cervical carcinoma cells; assay: In vitro viability study, trypan blue exclusion assay; format: cell-based; details: 0.5 mL solution added to 0.5 mL media, 15 seconds at room temperature, PBS control 86%
# Experimental: Low passage HeLa human cervical carcinoma cells (ATCC) were maintained with Eagles minimum essential medium (MEM, Gibeo, Carlsbad, California) supplemented with 10% (vol.) fetal bovine serum, 1% (vol.) penicillin and 1% (vol.) streptomycin. Cells were passaged twice per week and maintained at 37° C. and 5% CO2. Cells were cultured in two 12-well plates and grown to 80% confluence. Immediately before the experiment, cell media was removed and 0.5 mL of fresh media was added to each well. Next, each well was treated with 0.5 mL of either ethanol (200 proof, Koptec, King of Prussia, PA), 3% (w/w) ethyl cellulose (USP, Sigma Aldrich, Rockville, MD) in ethanol or PBS (control), added directly to the media. […] Tapani, E., et al., Toxicity of ethanol in low concentrations. Experimental evaluation in cell culture. Acta Radiol, 1996. 37(6): p. 923-6. The media containing the treatment solution was then removed, each well was rinsed twice with 1 mL of PBS, and given 1 mL of fresh MEM media. After all wells had been treated, each well was rinsed one time with 1 mL of PBS, given 250 μL of […] trypsin (Gibed, Carlsbad, CA), and returned to the incubator for 5 minutes. […] Viability was then assessed with a trypan blue exclusion assay (Gibco, Carlsbad, CA and a Countess Automated Cell Counter, Invitrogen, Carlsbad, CA). […]
# [2] = tested on: squamous cell carcinoma tumors in the hamster cheek pouch; details: for Tumors with complete response (no visible lesion): day 7, manual high-volume injection, 13 tumors ablated; for Tumor volume as % of the initial volume (normalized tumor volume): day 7, manual intratumoral injection, average 284±350 μL pure ethanol, 13 tumors
# Excerpt: The animal study protocol was approved by the Duke University Institutional Animal Care and Use Committee. For the manual pure ethanol ablation study, a total of 6 hamsters were used. For the rate- and viscosity-controlled study, a total of 8 hamsters were used. Tumors were induced through the topical application of dimethylbenz[a]anthracene (Sigma-Aldrich). Burns, R. A., et al., Tumor-localizing and photosensitizing properties of hematoporphyrin derivative in hamster buccal pouch carcinoma. Oral Surg Oral Med Oral Pathol, 1986. 61(4): p. 368-72. Three times a week the buccal mucosa of each cheek pouch was inverted then stretched from the mouth. An area of approximately […] was painted with a cotton swab dipped in the DMBA-mineral oil solution. The cheek pouches were painted until tumors of at least 100 uL in volume developed, at approximately 22 weeks.
# Tumor volumes were measured before the injection and daily for 7 days after. […] They were only performed if the tumor volume had increased for two consecutive days after the 7 day observation period. Volumes were calculated by measuring the longest axis and the orthogonal axis and using the following formula: V=4/3π*(Rlong^2)*(Rorth). Complete response is defined as the total absence of any evidence of a tumor or raised lesion by visual examination.
# For cell viability analysis, a one-Way ANOVA was used followed by a Tukey-HSD. For both phantom distribution volume and in vivo normalized tumor volume analysis, a non-parametric ANOVA was used (Kruskal-Wallis) followed by a non-parametric multiple comparisons test (Dunn's test). In comparing phantom distribution volume and in vivo normalized tumor volume, the Pearson's product moment correlation coefficient was calculated. All statistical analysis was performed in R. Normalized tumor volume was calculated by dividing by the volume at a given time point by the initial volume before treatment.
# [3] = tested on: squamous cell carcinoma tumors in the hamster cheek pouch; assay: Injection rate- and viscosity-controlled ablation study, hamster cheek pouch model; format: in vivo; details: day 7, 50 μL injected, mean over injection rates 0.1, 1.0, 10 and 100 mL/hr
# Experimental: Three percent ethyl cellulose (Sigma Aldrich)-ethanol solutions (weight by weight) were prepared by stirring at room temperature. Three percent was chosen as higher viscosities required a lockable needle to stay attached to the syringe at high injection rates. Two drops of blue food dye were added for every 1 mL of ethanol and ethyl cellulose-ethanol solutions to enhance contrast. 50 μL of either solution was injected at a rate of 0.1, 0.5, 1.0, 5.0, 10 or 35 mL/hr as controlled by a syringe pump (NE-300 Just Infusion Syringe Pump). Manual injections were approximately 100 mL/hr. A 1 mL syringe and 27 G needles connected with microtubing (Tygon Microtube Tubing, 0.25 mmID) were used for injections. On the outflow-end of the catheter tube a 27 G needle was snapped off the base to fit into the tubing.
# Oral Surg Oral Med Oral Pathol, 1986. 61(4): p. 368-72. […] The cheek pouches were painted until tumors of at least 100 uL in volume developed, at approximately 22 weeks.
# The average tumor volume was 195±140 μL and 50 μL of solution (either ethanol or 3% ethyl cellulose-ethanol) was injected. Solutions were injected with the syringe pump at 0.1, 1.0 or 10 mL/hr or injected manually. Tumor volume was measured before injections and at 1, 2 4 and 7 days following the injection. […] 36 total ablations were performed on 8 animals. […]
smiles,measurement,setting,value
CCO [ethanol],Viability (live cell count/total cell count),[1],19%
same,Tumors with complete response (no visible lesion),[2],4 of 13
same,Tumors with complete response (no visible lesion),[2]; listed as pure ethanol,4 and 4 out of 13 and 4/13
same,Tumor volume as % of the initial volume (normalized tumor volume),[2],30%
same,Tumor volume as % of the initial volume (normalized tumor volume),[2]; listed as pure ethanol,30±33%
same,Normalized tumor volume,[3],79±79%
